Experiment: Inhibition of Influenza B virus neuraminidase R152K mutant

Row | Structure (SMILES) | IC50 [µM]
1 | CCOC(=O)c1cn(CC)c2ccc(-n3cc(C4=CCCCC4)nn3)cc2c1=O | 30
2 | CCOC(=O)C1=C[C@@H](OC(CC)CC)[C@H](NC(C)=O)[C@@H](N)C1 [OSELTAMIVIR] | 85

— ChEMBL document CHEMBL3739372 (Bioorg Med Chem, 2015)
